Columns and labels:
Experiment in all cases: relative viability (nuclei count vs DMSO), 5 days (fraction); higher = more cells survive
Zebularine + Lapatinib = compound: O=c1ncccn1[C@@H]1O[C@H](CO)[C@@H](O)[C@H]1O [Zebularine] + CS(=O)(=O)CCNCc1ccc(-c2ccc3ncnc(Nc4ccc(OCc5cccc(F)c5)c(Cl)c4)c3c2)o1 [Lapatinib] (partner 2 µM)
How it was run: (§1)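 Lung cancer cell lines in 1536-well plates were dosed by pin tool the day after seeding, either with one drug alone or with a fixed anchor-drug dose plus five library-drug doses (not always all listed) in √10 steps. After 5 days, cells were fixed and their nuclei stained in one step (final 0.05% Triton X-100, 1% formaldehyde, 1 ug/ml Hoechst), then counted on 4× images. Relative viability is the nuclei count in treated wells divided by that in vehicle wells. Values are medians of duplicate plates.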

BI-D1870 + Pemetrexed = compound: CC(C)CCN1c2nc(Nc3cc(F)c(O)c(F)c3)ncc2N(C)C(=O)C1C [BI-D1870] + Nc1nc2[nH]cc(CCc3ccc(C(=O)N[C@@H](CCC(=O)O)C(=O)O)cc3)c2c(=O)[nH]1 [Pemetrexed] (partner 0.2 µM)
How it was run: as §1

Zebularine + Decitabine = compound: O=c1ncccn1[C@@H]1O[C@H](CO)[C@@H](O)[C@H]1O [Zebularine] + Nc1ncn([C@H]2C[C@H](O)[C@@H](CO)O2)c(=O)n1 [Decitabine] (partner 2 µM)
How it was run: as §1

BI-D1870 + Alpelisib = compound: CC(C)CCN1c2nc(Nc3cc(F)c(O)c(F)c3)ncc2N(C)C(=O)C1C [BI-D1870] + Cc1nc(NC(=O)N2CCC[C@H]2C(N)=O)sc1-c1ccnc(C(C)(C)C(F)(F)F)c1 [Alpelisib] (partner 2 µM)
How it was run: as §1

## UMC-11
Zebularine + Lapatinib; first compound 1 µM
  relative viability: 1.28
Zebularine + Lapatinib; first compound 3.162 µM
  relative viability: 0.977
Zebularine + Lapatinib; first compound 10 µM
  relative viability: 0.614
Zebularine + Lapatinib; first compound 31.62 µM
  relative viability: 0.849
Zebularine + Lapatinib; first compound 100 µM
  relative viability: 0.436
BI-D1870 + Pemetrexed; first compound 0.04 µM
  relative viability: 0.812
BI-D1870 + Pemetrexed; first compound 0.1265 µM
  relative viability: 0.751
BI-D1870 + Pemetrexed; first compound 0.4 µM
  relative viability: 0.777
BI-D1870 + Pemetrexed; first compound 1.265 µM
  relative viability: 0.779
BI-D1870 + Pemetrexed; first compound 4 µM
  relative viability: 0.277
Zebularine + Decitabine; first compound 1 µM
  relative viability: 0.557
Zebularine + Decitabine; first compound 3.162 µM
  relative viability: 0.604
Zebularine + Decitabine; first compound 10 µM
  relative viability: 0.589
Zebularine + Decitabine; first compound 31.62 µM
  relative viability: 0.586
Zebularine + Decitabine; first compound 100 µM
  relative viability: 0.527
BI-D1870 + Alpelisib; first compound 0.04 µM
  relative viability: 1.05
BI-D1870 + Alpelisib; first compound 0.1265 µM
  relative viability: 0.935
BI-D1870 + Alpelisib; first compound 0.4 µM
  relative viability: 1
BI-D1870 + Alpelisib; first compound 1.265 µM
  relative viability: 1.05
BI-D1870 + Alpelisib; first compound 4 µM
  relative viability: 1.02
